Assay [1] is described as follows: Inhibition of Mycobacterium tuberculosis RNA polymerase H445Y mutant by rolling circle transcription assay in the presence of sigmaA factor.
The nature of assay [2]: Inhibition of Mycobacterium tuberculosis RNA polymerase D435V mutant by rolling circle transcription assay in the presence of sigmaA factor.
The nature of assay [3]: Inhibition of Mycobacterium tuberculosis RNA polymerase S450L mutant by rolling circle transcription assay in the presence of sigmaA factor.
For assay [4], the system named is Mycobacterium tuberculosis. Briefly: Ratio of rifalazil IC50 to compound IC50 for Mycobacterium tuberculosis RNA polymerase S450L mutant in the presence of sigmaA factor.
Assay [5] has as its system Mycobacterium tuberculosis. Briefly: Ratio of rifalazil IC50 to compound IC50 for Mycobacterium tuberculosis RNA polymerase D435V mutant in the presence of sigmaA factor.
Assay [6] is described as follows: Inhibition of Mycobacterium tuberculosis RNA polymerase D435V mutant by rolling circle transcription assay in the absence of sigmaA factor.
Assay [7] is described as follows: Inhibition of Mycobacterium tuberculosis RNA polymerase H445Y mutant by rolling circle transcription assay in the absence of sigmaA factor.
Assay [8] in a line: Inhibition of Mycobacterium tuberculosis RNA polymerase S450L mutant by rolling circle transcription assay in the absence of sigmaA factor.

Consider `CCN(CC)CCOc1cccc2oc3c4c(=O)c5c(O)c(C)c6c(c5c-3nc12)C(=O)[C@@](C)(O/C=C/[C@H](OC)[C@@H](C)[C@@H](OC(C)=O)[C@H](C)[C@H](O)[C@H](C)[C@@H](O)[C@@H](C)/C=C/C=C(/C)C(=O)N4)O6`, for which the values for the half-maximal inhibitory concentration (IC50) in assay [1], in assay [2] and in assay [3] were 171 µM, 20 µM and 16 µM, respectively. For the same compound, the Ratio IC50 in assay [4] came out at 7; in assay [5], 26.
On to `CO[C@H]1/C=C/O[C@@]2(C)Oc3c(C)c(O)c4c(=O)c(c5oc6cccc(OCCCCN7CCN(CCn8ccnc8)CC7)c6nc-5c4c3C2=O)NC(=O)/C(C)=C\C=C\[C@H](C)[C@H](O)[C@@H](C)[C@@H](O)[C@@H](C)[C@H](OC(C)=O)[C@@H]1C`, for which the values for the IC50 in assay [1], in assay [2] and in assay [3] were 437 µM, 9 µM and 18 µM, respectively. Further, the Ratio IC50 in assay [4] was found to be 7; in assay [5], 26.
In the case of `CO[C@H]1/C=C/O[C@@]2(C)Oc3c(C)c(O)c4c(O)c(c(/C=N/N5CCN(C)CC5)c(O)c4c3C2=O)NC(=O)/C(C)=C\C=C\[C@H](C)[C@H](O)[C@@H](C)[C@@H](O)[C@@H](C)[C@H](OC(C)=O)[C@@H]1C` [RIFAMPIN], the values for the half-maximal inhibitory concentration (IC50) in assay [6], in assay [7] and in assay [8] were 313 µM, 830 µM and 126 µM, respectively.
Turning to `CO[C@H]1/C=C/O[C@@]2(C)Oc3c(C)c(O)c4c(=O)c(c5oc6cccc(OCCCCN7CCN(C(=O)Cn8ccnc8)CC7)c6nc-5c4c3C2=O)NC(=O)/C(C)=C\C=C\[C@H](C)[C@H](O)[C@@H](C)[C@@H](O)[C@@H](C)[C@H](OC(C)=O)[C@@H]1C`, the concentration for half-maximal inhibition (IC50) in assay [1] is 574 µM; in assay [2] it was 13 µM; in assay [3] it was 122 µM. Moreover, the Ratio IC50 in assay [5] came to 26.
`CO[C@H]1/C=C/O[C@@]2(C)Oc3c(C)c(O)c4c(=O)c(c5oc6cc(N7CCN(CC(C)C)CC7)cc(O)c6nc-5c4c3C2=O)NC(=O)/C(C)=C\C=C\[C@H](C)[C@H](O)[C@@H](C)[C@@H](O)[C@@H](C)[C@H](OC(C)=O)[C@@H]1C` [RIFALAZIL]: the IC50 in assay [1] was found to be 172 µM; in assay [2], 541 µM; in assay [3] it was 117 µM.

As usually defined, the IC50 is the concentration that inhibits the measured activity by half.

These data come from ChEMBL document CHEMBL2046330, “Structure-based design of novel benzoxazinorifamycins with potent binding affinity to wild-type and rifampin-resistant mutant Mycobacterium tuberculosis RNA polymerases” (J Med Chem, 2012).
